Assay [1] has as its target NMDA receptors. Put plainly: 3H-MK801 (Dizocilpine) binding in vitro. As to conditions: rat whole brain membranes, 5nM 3H-MK-801, glutamate, glycine and spermidine present. The protocol:
3H-MK801 (Dizocilpine) binding in vitro
The whole brain from 150-200g male rats, without cerebellum and without medulla oblongata was dissected on ice. The tissue was then homogenized with an Ultra-Turrax maximum speed during 30 seconds at 4°C in 50 volumes of cold Tris HCI 50mM, EDTA disodium 10mM, pH=7.4 buffer (wet weight/v). The homogenate was centrifuged at 48'000 x g (20'000 rpm, SS34, Sorvall RC5C) for 10 minutes. The pellet was rehomogenized with the same volume of buffer and the homogenate incubated at 37°C for 10 minutes. After centrifugation as above, the pellet was rehomogenized with the same volume of buffer and frozen at -80°C in 35 ml fractions for at least 16 hours and not more than 2 weeks.
For the binding experiment, the homogenate was centrifuged as above and the pellet was washed 3 times by homogenization in 25 volumes of cold Tris HCl 5mM, pH=7.4 buffer (Ultra-Turrax, maximum speed, 30 seconds) and centrifugation as above. The final pellet was rehomogenized in 25 volumes of buffer (original wet weight) and used as such in the assay. The final concentration of membrane in the assay was 20mg/ml (wet weight).
The incubation was performed in the presence of 1nM glutamate, glycine and spermidine. MK-801, (+)-[3-3H(N)], NEN (NET-972) 20Ci/mmol, was used at 5nM final concentration. Non specific binding was determined in presence of […] TCP. After 2 hours of incubation at room temperature, the suspension was filtered (Whatmann GF/B, soaked in 0.1% polyethylenimine for 2 hours) and washed 5 times with 3 ml of cold Tris HCl 5mM, pH=7.4 buffer. The air-dried filters were counted with 10ml of Ultima-gold (Packard) in a Tri-Carb 2500 TR scintillation counter after agitation.
The DPM were transformed in % of specific binding and these values were treated by a non linear regression calculation program (BINDING, H. Affolter, Switzerland) which provided the IC50 values for the low and high affinity binding sites (= concentrations producing half maximal inhibition at the respective sites). Each experiment was repeated at least three times and the final IC50 values were calculated as the mean +/-standard deviation of the individual experiments.
Reference: R.W. Ransom and N.L. Stec. Journal of Neurochemistry 51, 830-836, 1988.

The target in assay [2] is T1, NMDAR1C - NMDAR2A (Rattus norvegicus, UniProt P35439+Q00959).
T1 construct: expressed in transfected cells; host or cells: Xenopus laevis oocytes injected with in vitro transcribed mRNA (1:1 mixture)
T1 sequence (Q00959 23-1464, other chains not shown): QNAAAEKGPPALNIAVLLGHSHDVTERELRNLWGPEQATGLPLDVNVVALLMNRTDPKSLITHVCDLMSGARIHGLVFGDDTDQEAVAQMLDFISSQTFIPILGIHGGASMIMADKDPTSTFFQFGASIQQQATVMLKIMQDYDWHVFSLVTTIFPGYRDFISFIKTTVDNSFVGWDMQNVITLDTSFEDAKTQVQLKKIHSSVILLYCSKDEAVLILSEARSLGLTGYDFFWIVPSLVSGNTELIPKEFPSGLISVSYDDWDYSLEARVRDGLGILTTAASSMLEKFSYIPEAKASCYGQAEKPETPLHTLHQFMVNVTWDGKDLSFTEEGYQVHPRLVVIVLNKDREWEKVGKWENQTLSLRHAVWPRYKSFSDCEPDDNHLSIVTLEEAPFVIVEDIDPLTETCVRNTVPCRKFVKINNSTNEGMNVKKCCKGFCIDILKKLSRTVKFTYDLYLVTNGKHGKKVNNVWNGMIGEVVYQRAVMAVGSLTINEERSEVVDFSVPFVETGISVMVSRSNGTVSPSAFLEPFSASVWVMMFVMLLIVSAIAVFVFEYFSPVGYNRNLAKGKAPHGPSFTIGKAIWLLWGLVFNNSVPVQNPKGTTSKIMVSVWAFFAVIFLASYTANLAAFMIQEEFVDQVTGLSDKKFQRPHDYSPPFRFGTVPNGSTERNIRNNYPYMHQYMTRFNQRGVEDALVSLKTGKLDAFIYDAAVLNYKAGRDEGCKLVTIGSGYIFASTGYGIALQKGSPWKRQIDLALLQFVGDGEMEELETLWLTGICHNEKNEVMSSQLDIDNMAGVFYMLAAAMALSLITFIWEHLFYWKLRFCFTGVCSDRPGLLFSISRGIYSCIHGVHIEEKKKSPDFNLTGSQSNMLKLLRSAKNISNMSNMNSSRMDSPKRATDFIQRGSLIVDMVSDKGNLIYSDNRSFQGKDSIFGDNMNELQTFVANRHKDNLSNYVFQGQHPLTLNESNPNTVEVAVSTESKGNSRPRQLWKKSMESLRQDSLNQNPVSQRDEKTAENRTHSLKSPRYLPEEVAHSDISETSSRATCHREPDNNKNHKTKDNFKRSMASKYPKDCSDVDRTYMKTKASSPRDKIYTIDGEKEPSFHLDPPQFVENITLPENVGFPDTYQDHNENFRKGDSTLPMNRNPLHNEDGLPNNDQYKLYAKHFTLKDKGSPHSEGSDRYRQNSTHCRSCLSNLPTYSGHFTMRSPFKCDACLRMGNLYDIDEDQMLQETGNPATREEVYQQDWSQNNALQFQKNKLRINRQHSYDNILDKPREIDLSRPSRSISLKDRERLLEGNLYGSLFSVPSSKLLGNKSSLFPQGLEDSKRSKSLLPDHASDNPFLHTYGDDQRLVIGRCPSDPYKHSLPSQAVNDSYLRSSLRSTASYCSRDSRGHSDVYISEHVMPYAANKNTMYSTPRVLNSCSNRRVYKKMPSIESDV
Put plainly: Electrophysiology on recombinant NMDA receptors expressed in oocytes. Conditions: Xenopus laevis oocytes, voltage clamp -80 mV; 70 µM Asp plus 2.5 µM Gly; read-out: Electrophysiology/IC50 (µM) oocytes NMDAR 1C & 2A. In kind it is cell-based. From the text:
(§1) Electrophysiology on recombinant NMDA receptors.
(§2) cDNA clones coding for the subunits NMDAR1C and NMDAR2A of the NMDA receptor (see Hollmann and Heinemann, 1994, Annu. Rev. Neurosci. 17: 31 for nomenclature of NMDA receptor subunits) were isolated from a rat brain λgt11 cDNA library as published elsewhere (Sigel et al., 1994, J. Biol. Chem. 269:8204). The clone for the subunit NMDAR2B of the rat brain NMDA receptor was obtained from S.Nakanishi (Kyoto, Japan). The cDNAs were transcribed, capped and poly(A^+)-tailed as described previously (Malherbe et al., 1990, Mol. Brain Res. 8: 199). Oocytes of South African frogs (Xenopus laevis) were used for expressing either a combination of the NMDAR1C and NMDAR2A subunits or the NMDAR1C and NMDAR2B subunits. Approximately 3 fmol of a 1:1 mixture of the respective mRNA species were injected into every oocyte. Four to five days later the ion current through the NMDA receptor channels was measured in voltage clamp experiments (see Methfessel et al., 1986, Pflügers Arch. 407: 577 for the methods of oocyte expression and voltage-clamping). The membrane potential was clamped to -80 mV and the receptors were activated by applying a modified Ringer's solution containing the agonists L-asparatate (Asp) and glycine (Gly). Different agonist concentrations were chosen for either subunit combination to account for the different agonist sensitivities of the two types of receptors (70 µM Asp plus 2.5 µM Gly for NMDAR1C - NMDAR2A and 15 µM Asp plus 0.2 µM Gly for NMDAR1C - NMDAR2B). The agonists were applied for 15 s intervals once every 2.5 min by rapid superfusion of the oocyte. After a series of initial control stimuli increasing concentrations of the antagonist to be tested were added to both, the basal Ringer's and the agonist containing solution. For the data analysis the amplitude (y) of the agonist-induced current was plotted versus the concentration (x) of the antagonist and the logistic function y =A/[1 +(x/IC50)^H ] [formula] was fitted to the data to estimate the 50 % inhibitory concentration (IC50). Three to six oocytes were tested for every antagonist and if possible, at least 3 concentrations embracing the IC50 were applied to every oocyte. […] In two other cases a concentration of 0.1 µM produced a slowly increasing block which exceeded 50% after 30 min. […] Figures for the IC50 in all other cases are arithmetic mean values of individual IC50s determined by the logistic curve fits.

Assay [3] deals with T2, NMDAR1C - NMDAR2B (Rattus norvegicus, UniProt P35439+Q00960).
T2 construct: expressed in transfected cells; host or cells: Xenopus laevis oocytes injected with in vitro transcribed mRNA (1:1 mixture)
T2 sequence (Q00960 27-1482, other chains not shown): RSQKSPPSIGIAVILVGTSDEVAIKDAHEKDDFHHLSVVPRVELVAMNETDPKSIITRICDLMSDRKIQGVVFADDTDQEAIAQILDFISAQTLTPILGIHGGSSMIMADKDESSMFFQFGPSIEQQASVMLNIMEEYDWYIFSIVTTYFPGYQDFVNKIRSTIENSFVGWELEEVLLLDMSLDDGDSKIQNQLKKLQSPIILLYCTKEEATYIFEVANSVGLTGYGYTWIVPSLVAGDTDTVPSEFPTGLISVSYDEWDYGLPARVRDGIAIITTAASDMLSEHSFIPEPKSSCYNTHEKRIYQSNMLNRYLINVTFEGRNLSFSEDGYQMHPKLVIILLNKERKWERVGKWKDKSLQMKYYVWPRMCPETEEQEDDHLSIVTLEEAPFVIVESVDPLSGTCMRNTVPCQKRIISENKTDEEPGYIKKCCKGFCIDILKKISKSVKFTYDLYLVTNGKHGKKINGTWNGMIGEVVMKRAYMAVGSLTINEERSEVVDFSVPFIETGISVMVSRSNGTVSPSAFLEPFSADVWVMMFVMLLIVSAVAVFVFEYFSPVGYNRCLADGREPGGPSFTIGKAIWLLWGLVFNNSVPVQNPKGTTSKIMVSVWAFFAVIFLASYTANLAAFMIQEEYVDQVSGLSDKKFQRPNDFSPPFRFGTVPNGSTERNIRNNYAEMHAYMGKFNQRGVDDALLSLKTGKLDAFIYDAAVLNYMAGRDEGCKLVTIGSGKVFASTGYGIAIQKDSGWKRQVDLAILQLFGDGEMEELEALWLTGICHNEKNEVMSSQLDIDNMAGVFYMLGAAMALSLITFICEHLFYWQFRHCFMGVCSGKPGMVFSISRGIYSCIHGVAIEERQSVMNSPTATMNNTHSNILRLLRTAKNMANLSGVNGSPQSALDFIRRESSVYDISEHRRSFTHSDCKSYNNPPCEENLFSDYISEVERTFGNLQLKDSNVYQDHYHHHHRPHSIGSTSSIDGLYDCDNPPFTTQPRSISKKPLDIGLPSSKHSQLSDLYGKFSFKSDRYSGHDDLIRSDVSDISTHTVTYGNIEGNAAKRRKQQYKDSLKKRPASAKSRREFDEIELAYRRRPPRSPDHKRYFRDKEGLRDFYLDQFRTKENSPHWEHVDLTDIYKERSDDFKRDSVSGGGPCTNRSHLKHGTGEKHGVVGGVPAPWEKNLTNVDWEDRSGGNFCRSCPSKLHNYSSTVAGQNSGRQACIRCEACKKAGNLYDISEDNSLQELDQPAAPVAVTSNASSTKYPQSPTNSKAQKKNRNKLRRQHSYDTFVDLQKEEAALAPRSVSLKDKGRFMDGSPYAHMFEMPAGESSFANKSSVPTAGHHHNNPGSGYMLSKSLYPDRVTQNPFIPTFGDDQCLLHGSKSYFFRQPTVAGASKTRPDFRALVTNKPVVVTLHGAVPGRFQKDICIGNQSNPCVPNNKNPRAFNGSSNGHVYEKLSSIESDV
The assay is described as above. Format: cell-based. Conditions: Xenopus laevis oocytes, voltage clamp -80 mV; 15 µM Asp plus 0.2 µM Gly; read-out: Electrophysiology/IC50 (µM) oocytes NMDAR 1C & 2B.
Excerpt: as §1, §2

[4] abbreviates: high affinity binding site, read-out: 3H-MK 801 / IC50 (µM) high.
Where [5] appears, read: low affinity binding site, read-out: 3H-MK 801 / IC50 (µM) low.

SMILES strings stand for the structures. Like-named read-outs stand apart in the source and are kept apart here.

Turning to `COc1cc2c(cc1O)C(CCc1ccc(Cl)cc1)N(C)CC2` (stereo not shown) [B, 1-[2-(4-Chloro-phenyl)-ethyl]-6-methoxy-2-methyl-1,2,3,4-tetrahydroisoquinolin-7-ol], the IC50 came out at 0.09 µM in assay [1] (setting [4]) and 54 µM in assay [1] (setting [5]).

Consider `COc1cc2c(cc1OC)C1CCCCC1NC2CCc1ccc(Cl)cc1` (stereo not shown) [H, 6-[2-(4-Chloro-phenyl)-ethyl]-8,9,dimethoxy-1,2,3,4,4a,5,6,10b-octahydrophenanthridine], for which the values for the IC50 in assay [1] (setting [4]) and in assay [1] (setting [5]) were 0.5 µM and 589 µM, respectively.

With `CN1CCc2cc3c(cc2C1CCc1ccc(Cl)cc1)OCO3` (stereo not shown) [P], the IC50 is 1.7 µM in assay [1] (setting [4]) and 95 µM in assay [1] (setting [5]).

For `COc1cc2c(cc1OC)C(CC(O)c1ccc(C)cc1)N(C)CC2` (stereo not shown) [A, 2-(6,7-Dimethoxy-2-methyl-1,2,3,4-tetrahydroisoquinolin-1-yl)-1-p-tolyl-ethanol], the IC50 in assay [1] (setting [4]) is 0.04 µM; in assay [1] (setting [5]), 223 µM; in assay [2], greater than 100 µM; in assay [3], no more than 0.1 µM.

Turning to `COc1cc2c(cc1OC)C(CC(OC(C)=O)c1ccc(Cl)cc1)N(C)CC2` (stereo not shown) [Q], the IC50 in assay [1] (setting [4]) was 1.76 µM; in assay [1] (setting [5]), 161 µM; in assay [2] it was 21 µM; in assay [3] it was 1.2 µM.

For `COc1ccc2c(c1OC)CCN(C)C2CCc1ccc(Cl)cc1` (stereo not shown) [W], the figures for the IC50 in assay [1] (setting [4]) and in assay [1] (setting [5]) were 3.6 µM and 129 µM, respectively.

Regarding `COc1cc2c(cc1OC)C(CC(O)c1cc(Cl)c(Cl)cc1Cl)N(C)CC2` (stereo not shown) [K], the IC50 was found to be 0.91 µM in assay [1] (setting [4]) and 613 µM in assay [1] (setting [5]).

As to `COc1cc2c(cc1OC)C(CCc1ccc(C)cc1)N(C)CC2` (stereo not shown) [E, 6,7-Dimethoxy-2-methyl-1-(2-p-tolyl-ethyl)-1,2,3,4-tetrahydroisoquinoline], the IC50 in assay [1] (setting [4]) is 0.34 µM; in assay [1] (setting [5]) it was 129 µM.

Turning to `COc1ccc(CCC2c3cc(OC)c(OC)cc3CCN2C)cc1` (stereo not shown) [M], the IC50 was found to be 1.39 µM in assay [1] (setting [4]) and 95 µM in assay [1] (setting [5]).

In the case of `COc1cc2c(cc1OC)C(CCc1ccccc1)N(C)CC2` (stereo not shown) [R], the IC50 in assay [1] (setting [4]) was 2.1 µM; in assay [1] (setting [5]) it was 147 µM.

Take `CCC(=O)OC(CC1c2cc(OC)c(OC)cc2CCN1C)c1ccc(Cl)cc1` (stereo not shown) [S]: the figures for the IC50 in assay [1] (setting [4]) and in assay [1] (setting [5]) were 2.18 µM and 123 µM, respectively.

For the molecule `COc1cc2c(cc1OC)C(CCc1ccc(Cl)cc1)N(C)C1CCCCC21` (stereo not shown) [F, 6-[2-(4-Chloro-phenyl)-ethyl]-8,9-dimethoxy-5-methyl-1,2,3,4,4a,5,6,10b-octahydro-phenanthridine], the IC50 in assay [1] (setting [4]) is 0.4 µM; in assay [1] (setting [5]), 315 µM; in assay [2], greater than 30 µM; in assay [3], less than 0.1 µM.

For `COc1cc2c(cc1OC)C(CC(O)c1ccc(Cl)cc1)N(C)CC2` (single isomer, unassigned) [V], the IC50 in assay [1] (setting [4]) worked out at 2.9 µM; in assay [1] (setting [5]), 110 µM.

Take `COc1cc2c(cc1OC)C(CCc1ccc([N+](=O)[O-])cc1)N(C)CC2` (stereo not shown) [U]: the IC50 in assay [1] (setting [4]) was found to be 2.71 µM; in assay [1] (setting [5]), 87 µM.

As for `COc1cc2c(cc1OC)C(CCc1ccc(Br)cc1)N(C)CC2` (stereo not shown) [L], the IC50 in assay [1] (setting [4]) worked out at 1.37 µM; in assay [1] (setting [5]) it was 198 µM.

As for `Cc1cc2c(cc1C)C(CCc1ccc(Cl)cc1)N(C)C(C)C2` (stereo not shown) [X], the IC50 in assay [1] (setting [4]) amounted to 3.87 µM; in assay [1] (setting [5]), 2230 µM.

On to `COc1cc2c(cc1OC)C(CCc1ccc(C(C)C)cc1)N(C)CC2` (stereo not shown) [N], for which the IC50 in assay [1] (setting [4]) was found to be 1.59 µM; in assay [1] (setting [5]) it was 370 µM.

For `COc1cc2c(cc1OC)C(CC(O)c1ccc([N+](=O)[O-])cc1)N(C)CC2` (stereo not shown) [G, 2-(6,7-Dimethoxy-2-methyl-1,2,3,4-tetrahydroisoquinolin-1-yl)-1-(4-nitrophenyl)-ethanol], the figures for the IC50 in assay [1] (setting [4]) and in assay [1] (setting [5]) were 0.46 µM and 87 µM, respectively.

For the molecule `COc1cc2c(cc1OC)C(CC(O)c1ccc(Cl)cc1)N(C)CC2` (single isomer, unassigned) [C, 1-(4-Chloro-phenyl)-2-(6,7-dimethoxy-2-methyl-1,2,3,4-tetrahydroisoquinolin-1-yl)-ethanol], the IC50 in assay [1] (setting [4]) was 0.12 µM; in assay [1] (setting [5]) it was 191 µM; in assay [2], greater than 20 µM; in assay [3], 0.043 µM.

In the case of `COc1ccc(C(O)CC2c3cc(OC)c(OC)cc3CCN2C)cc1` (stereo not shown) [I], the IC50 is 0.59 µM in assay [1] (setting [4]) and 146 µM in assay [1] (setting [5]).

As to `CN1CCc2cc(O)c(O)cc2C1CCc1ccc(Cl)cc1` (stereo not shown) [D, 1-[2-(4-Chloro-phenyl)-ethyl] -2-methyl-1,2,3,4-tetrahydro-isoquinoline-6,7-diol], the IC50 in assay [1] (setting [4]) was 0.29 µM; in assay [1] (setting [5]), 116 µM; in assay [2], 19 µM; in assay [3] it was 0.28 µM.

On to `CN1CCc2cc(O)c(O)cc2C1CCc1ccc(Cl)c(Cl)c1` (stereo not shown) [T], for which the values for the IC50 in assay [1] (setting [4]) and in assay [1] (setting [5]) were 2.31 µM and 56 µM, respectively.

Turning to `COc1cc2c(cc1OC)C(CCc1ccc([N+](=O)[O-])cc1)N(C)CC2` (stereo not shown) [O], the IC50 in assay [1] (setting [4]) was found to be 1.6 µM; in assay [1] (setting [5]), 101 µM.

Take `COc1cc2c(cc1OC)C(CCc1ccc(Cl)c(Cl)c1)N(C)CC2` (stereo not shown) [AA]: the IC50 was 4.62 µM in assay [1] (setting [4]) and 185 µM in assay [1] (setting [5]).
